Experimental data: paper PMC9561422 (Clinical and Translational Medicine, 2022)
pIC50: −log10 of the molar value. Entries after “also recorded” stand apart in the source; their conditions may differ. Like-named read-outs stand apart in the source and are kept apart here. Each block holds one substance with its values, some of them ahead of it. Ends that are not written are not given here.

Assays:
human myotubes = conditions: MTT dose-response curve
Description: (§1) Initially, MTT concentration‐response experiments in murine and human myoblasts as well as in myotubes were performed.
(§2) The 95% confidence interval of this curve is shown as grey area. IC10 is shown as a red vertical line.

C2C12 myotubes = conditions: Murine myotubes, MTT dose-response curve
Description: as §1, §2
(§3) Data are means ± SEM. […] (D–F) Data are means ± SEM. *p < .05; **p < .01; ***p < .001; two‐tailed Welch's t‐test. […] The exponent is read as -7; the minus sign and the digit are not certain. / Panel A: no compound label is printed beside the value. 'QSP' comes from the y-axis title of the same panel.

C2C12 myoblasts = conditions: Murine myoblasts, MTT dose-response curve
Description: as §1
(§4) Supplementary Figure 1. […] A) C2C12 myoblasts; B) human myoblasts. The x-axis indicates the different QSP concentrations, while the y-axis represents MTT reduction relative to placebo (placebo = 1.0). Squares (+ error bars) are means (+ SEM) of n=8-10 for each concentration, with the curve representing the best fitting 3-parameter logistic model around the means. The 95% confidence interval of this curve is shown as grey area. IC10 is shown as a red vertical line.

human myoblasts = test system: human myoblasts
Description: as §1, §4

C. elegans = conditions: adult worms treated once with 1 µM; n = 341, 5 independent experiments
Excerpt: Data presented are means ± SEM. * P < 0.05; ** P < 0.01 and *** P < 0.001; Welch’s 2-sided t-test with placebo as reference.DACBSupplementary Figure 2

in vitro = conditions: human, Caco-2
Excerpt: as §3
(§5) [picture] Supplementary Figure 5. […] Data are means ± SEM.Supplementary Figure 5

CaCo‐2 monolayer = test: in vitro; conditions: CaCo-2 monolayer, apical-basal, 4°C, n = 6
Excerpt: as §3, §5

[1] = ex vivo
Description: The powdered medium is dissolved in 900 mL water while stirring. To this solution, 0.3790 g CaCl2×2H2O and 2.098 g NaHCO3 are subsequently added while stirring. NaOH or HCl was used to adjust to pH 7.4. This solution is then further diluted to 1000 mL using ultrapure water.
The blood was collected in a 1.5 mL Eppendorf tube after decapitating the mouse. The blood of the 4 mice was pooled and centrifuged for 10 min at 1000 g at 5 °C. The supernatant (serum) was transferred to a 500 µL Eppendorf and was immediately frozen and stored at -35 °C.
The liver (5.0070 g) was collected from four C57BL/6 mice after cervical dislocation. After cleaning and rinsing the organ using ice-cold KH buffer, the liver was cut in little pieces and transferred into a 50 mL tube to which 36 mL ice-cold KH buffer was added. The liver was then homogenized with mixer. After the larger particles were allowed to settle for about 30 minutes at 5 °C, approximately 25 mL of the middle layer was transferred into a 50 mL Falcon tube using a plastic pipette. After shaking the homogenate, the homogenate was dispensed into ten 2 mL Eppendorf tubes, and stored at -35 °C until use. The protein content of the homogenate was determined to be 18.24 mg/mL using the Pierce Modified Lowry Protein Assay method. Just before use, the homogenate was diluted to a protein concentration of 0.6 mg/mL (i.e. 300 µg / 500 µl) by the addition of 29.4 mL of KH buffer to 1000 µl of the homogenate.
The kidneys (1.4143 g) were collected from four C57BL/6 mice after cervical dislocation. After cleaning and rinsing the organs using ice-cold KH buffer, the kidneys were cut in little pieces and transferred into a 50 mL tube to which 24 mL ice-cold KH buffer was added. The kidneys were then homogenized with mixer. After the larger particles were allowed to settle for about 30 minutes at 5 °C, approximately 10 mL of the middle layer was transferred into a 50 mL Falcon tube using a plastic pipette. After shaking the homogenate, the homogenate was dispensed into five 2 mL Eppendorf tubes, and stored at -35 °C until use. The protein content of the homogenate was determined to be 5.92 mg/mL using the Pierce Modified Lowry Protein Assay method. Just before use, the homogenate was diluted to a protein concentration of 0.6 mg/mL (i.e. 300 µg / 500 µl) by the addition of 8.87 mL of KH buffer to 1000 µl of the homogenate.
The colons (incl. caecum) (1.4174 g) were collected from four C57BL/6 mice after cervical dislocation. After cleaning and rinsing the organs using ice-cold KH buffer, the colons were cut in little pieces and transferred into a 15 mL tube to which 5 mL ice-cold KH buffer was added. The colons were then homogenized with mixer. After the larger particles were allowed to settle for about 30 minutes at 5 °C, approximately 2 mL of the middle layer was dispensed into a 2 mL Eppendorf tube, and stored at -35 °C until use. The protein content of the homogenate was determined to be 2.35 mg/mL using the Pierce Modified Lowry Protein Assay method. Just before use, the homogenate was diluted to a protein concentration of 0.6 mg/mL (i.e. 300 µg / 500 µl) by the addition of 2.92 mL of KH buffer to 1000 µl of the homogenate.
Fresh faeces (0.1810 g) was collected from four C57BL/6 mice. The faeces was then cut in little pieces and transferred into a 15 mL tube to which 5 mL ice-cold KH buffer was added. […] The protein content of the homogenate was determined to be 1.48 mg/mL using the Pierce Modified Lowry Protein Assay method. […]

C2C12 myoblast = test: Viability assays other than MTT on C2C12 myoblasts; format: cell-based, murine; conditions: 1 µM; trypan blue, Hoechst/PI, LDH release, Bax/Bcl2, Apotox assay
[2] = germ-free mice inoculated with genetically modified E. coli continuously producing iAM373
Excerpt: as §3

liver homogenate = conditions: C57BL/6 mice
faeces homogenate = conditions: C57BL/6 mice
kidney homogenate = conditions: C57BL/6 mice
muscle homogenate = conditions: C57BL/6 mice
[3] = colon homogenate (incl. caecum); conditions: C57BL/6 mice

Substance: SIFTLVA [iAM373]
pIC50 (human myotubes): 8.27
pIC50 (C2C12 myotubes): 7.89
pIC50 (C2C12 myoblasts): 7.21
pIC50 (human myoblasts; Human myoblasts, MTT dose-response curve): 6.74
IC90 (human myoblasts; human myoblasts, MTT): 930 nM
effect on survival of C. elegans (C. elegans): without a clear effect on survival
Papp A→B (in vitro): 0.14 ×10⁻⁶ cm/s
apical‐basal permeability coefficient (Papp) (CaCo‐2 monolayer): 0.87×10^–7 cm/s
Main metabolite at approx. T1/2 ([1]; murine colon homogenate): SIFTL (180 min)
Main metabolite at approx. T1/2 ([1]; murine faeces homogenate): SIF (60 min)
Main metabolite at approx. T1/2 ([1]; murine kidney homogenate): SIFT (30 min) SIFTL (30 min)
Main metabolite at approx. T1/2 ([1]; murine liver homogenate): FTLVA (180 min)
Main metabolite at approx. T1/2 ([1]; murine muscle homogenate): SIFTL (180 min)
cytotoxic or cytostatic effect in viability assays other than MTT (C2C12 myoblast): did not show a clear cytotoxic or cytostatic effect
presence in blood circulation after oral gavage of iAM373-producing E. coli [2]: detected in the blood circulation
estimated plasma concentration in iAM373-positive older residents: 453 pM

fragment found (liver homogenate): FTLVA, major
fragment found (faeces homogenate): SIF, major
fragment found (kidney homogenate): SIFT, major; also recorded: SIFTL, major
fragment found (muscle homogenate): SIFTL, major
fragment found [3]: SIFTL, major
Substance: SIFTLVA
